Results reported in article PMC6210068 (ACS Omega, 2018).

What was measured:
DOR [1] = molecular target: T1, DOR (Homo sapiens, UniProt P41143); assay: Radioligand binding at DOR
KOR [2] = molecular target: T2, KOR (Homo sapiens, UniProt P41145); assay: biochemical; assay type: binding
MOR [3] = molecular target: T3, MOR (Homo sapiens, UniProt P35372); assay: biochemical; assay type: binding
hNOP = hNOP (Homo sapiens, UniProt P41146); assay: Radioligand binding at NOP
rat kidney TSPO = rat kidney TSPO (Rattus norvegicus, UniProt P16257); assay: Radioligand binding at TSPO
hDAT [4] = molecular target: T4, hDAT (Homo sapiens, UniProt Q01959); assay: Radioligand binding at DAT; settings: for DAT, inhibition, % of control at 10 μM: [3H]WIN35428, negative = enhanced radioligand binding
hA3AR [5] = molecular target: T5, hA3AR (Homo sapiens, UniProt P0DMS8); assay: A3AR binding
T5 sequence (P0DMS8 1-318): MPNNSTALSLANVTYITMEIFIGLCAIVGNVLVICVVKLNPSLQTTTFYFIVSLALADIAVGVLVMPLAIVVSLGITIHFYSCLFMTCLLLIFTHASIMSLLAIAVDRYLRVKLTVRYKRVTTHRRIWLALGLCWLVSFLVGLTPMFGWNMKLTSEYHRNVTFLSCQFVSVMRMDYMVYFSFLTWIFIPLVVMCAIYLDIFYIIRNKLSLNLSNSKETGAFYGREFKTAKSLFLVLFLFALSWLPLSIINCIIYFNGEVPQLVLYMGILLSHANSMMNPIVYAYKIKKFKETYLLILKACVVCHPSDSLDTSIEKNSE

mA1AR = molecular target: T6, mA1AR (Mus musculus, UniProt Q60612); assay: mA1AR binding; settings: read-out: mA1AR binding, % inhibition at 10 μM
T6 sequence (Q60612 1-326): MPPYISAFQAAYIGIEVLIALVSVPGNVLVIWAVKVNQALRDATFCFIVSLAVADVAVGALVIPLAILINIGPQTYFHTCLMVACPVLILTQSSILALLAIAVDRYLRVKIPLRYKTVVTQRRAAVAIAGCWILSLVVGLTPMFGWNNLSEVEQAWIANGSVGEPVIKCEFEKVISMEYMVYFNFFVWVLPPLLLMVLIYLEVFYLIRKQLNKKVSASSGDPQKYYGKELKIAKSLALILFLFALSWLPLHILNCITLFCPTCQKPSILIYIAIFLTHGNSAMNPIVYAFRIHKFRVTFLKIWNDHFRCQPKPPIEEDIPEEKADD

mA2AAR = mA2AAR (Mus musculus, UniProt Q60613); assay: mA2AAR binding; settings: read-out: mA2AAR binding, % inhibition at 10 μM
DOR [6] = molecular target: T1, DOR; assay: β-arrestin-recruitment TANGO assay at DOR; assay type: cell-based; settings: 10 μM
KOR [7] = molecular target: T2, KOR; assay: β-arrestin-recruitment TANGO assay at KOR; assay type: cell-based; settings: 10 μM; vs naloxone 121 = 100% inhibition; agonist 109 (3 nM)
MOR [8] = molecular target: T3, MOR; assay: β-arrestin-recruitment TANGO assay at MOR; assay type: cell-based; settings: 10 μM
KOR [9] = molecular target: T2, KOR; assay type: cell-based; settings: antagonism of 1 μM U69593 98
hA3AR [10] = molecular target: T5, hA3AR; assay: hA3AR-mediated inhibition of cAMP formation; assay type: cell-based; settings: read-out: maximal efficacy, hA3AR-mediated inhibition of cAMP formation
hDAT [11] = molecular target: T4, hDAT; assay: hDAT binding modulation, [3H]mazindol 119
hDAT [12] = molecular target: T4, hDAT; assay: [3H]dopamine uptake inhibition at hDAT; assay type: cell-based
hNET [13] = molecular target: T7, hNET (Homo sapiens, UniProt P23975); assay: hNET binding, [125I]118
hSERT = hSERT (Homo sapiens, UniProt P31645); assay: hSERT binding and serotonin uptake
[14] = Pharmacokinetics after intravenous and oral administration; assay type: in vivo, male Sprague Dawley rats
hERG = hERG (Homo sapiens, UniProt Q12809); assay: hERG inhibition, fluorescence polarization assay; assay type: binding
CYP1A2 = CYP1A2 (Homo sapiens, UniProt P05177); assay: Cytochrome P450 inhibition in human microsomes, 1A2; assay type: in vitro ADME; settings: CYP450 1A2 IC50, human microsomes
CYP2C9 = CYP2C9 (Homo sapiens, UniProt P11712); assay: Cytochrome P450 inhibition in human microsomes, 2C9; assay type: in vitro ADME; settings: CYP450 2C9 IC50, human microsomes
CYP2C19 = CYP2C19 (Homo sapiens, UniProt P33261); assay: Cytochrome P450 inhibition in human microsomes, 2C19; assay type: in vitro ADME; settings: CYP450 2C19 IC50, human microsomes
CYP2D6 = CYP2D6 (Homo sapiens, UniProt P10635); assay: Cytochrome P450 inhibition in human microsomes, 2D6; assay type: in vitro ADME; settings: CYP450 2D6 IC50, human microsomes
CYP3A4 = CYP3A4 (Homo sapiens, UniProt P08684); assay: Cytochrome P450 inhibition in human microsomes, 3A4; assay type: in vitro ADME; settings: CYP450 3A4 IC50, human microsomes
Human plasma stability = assay type: in vitro ADME; settings: after 2 h
CACO-2 cell permeability = assay type: in vitro ADME; settings: human, Caco-2, pH 7.4
CACO-2 cells = assay: CACO-2 cell permeability; assay type: in vitro ADME; settings: human, Caco-2, 120 min, 10 µM, pH 7.4
hNET [15] = molecular target: T7, hNET; settings: read-out: Ki, inhibition of binding of [3H]104 at NET; cited from earlier work
β3 adrenergic receptor = β3 adrenergic receptor (Homo sapiens, UniProt P13945); assay: PDSP off-target binding, β3 adrenergic
[16] = molecular target: human 5HT1A serotonin receptor (Homo sapiens, UniProt P08908); assay: PDSP off-target binding, 5HT1A
rat σ2 receptor = molecular target: T8, rat σ2 receptor (Rattus norvegicus, UniProt Q5U3Y7); assay: PDSP binding, σ2 receptor
T8 sequence (Q5U3Y7 1-176): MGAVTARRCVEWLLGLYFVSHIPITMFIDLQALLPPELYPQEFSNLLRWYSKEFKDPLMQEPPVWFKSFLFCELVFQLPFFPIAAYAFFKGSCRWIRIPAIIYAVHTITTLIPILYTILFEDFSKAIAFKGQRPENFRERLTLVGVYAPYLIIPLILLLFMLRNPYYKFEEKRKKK

hDAT [17] = molecular target: T4, hDAT; settings: read-out: Ki, inhibition of binding of [3H]103 at hDAT; cited from earlier work
[18] = male, Sprague-Dawley, rat, plasma, po

T4 sequence (Q01959 whole entry): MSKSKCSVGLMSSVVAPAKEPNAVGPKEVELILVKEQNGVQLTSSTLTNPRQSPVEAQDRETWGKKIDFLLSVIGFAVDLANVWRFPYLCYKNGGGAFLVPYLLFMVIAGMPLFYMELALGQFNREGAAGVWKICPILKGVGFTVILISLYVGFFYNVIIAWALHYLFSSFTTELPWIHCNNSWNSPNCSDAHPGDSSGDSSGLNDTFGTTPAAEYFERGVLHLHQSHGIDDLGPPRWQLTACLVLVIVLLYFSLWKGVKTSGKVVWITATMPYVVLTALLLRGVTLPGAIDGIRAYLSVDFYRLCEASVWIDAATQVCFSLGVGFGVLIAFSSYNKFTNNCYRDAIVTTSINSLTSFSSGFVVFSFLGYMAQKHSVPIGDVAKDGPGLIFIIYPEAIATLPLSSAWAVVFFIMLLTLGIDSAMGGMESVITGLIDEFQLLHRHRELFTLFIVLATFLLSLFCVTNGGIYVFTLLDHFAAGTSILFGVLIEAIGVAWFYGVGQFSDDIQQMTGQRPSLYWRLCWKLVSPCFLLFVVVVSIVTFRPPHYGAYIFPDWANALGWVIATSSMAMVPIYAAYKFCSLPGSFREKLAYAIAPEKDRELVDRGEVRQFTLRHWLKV
T3 sequence (P35372 whole entry): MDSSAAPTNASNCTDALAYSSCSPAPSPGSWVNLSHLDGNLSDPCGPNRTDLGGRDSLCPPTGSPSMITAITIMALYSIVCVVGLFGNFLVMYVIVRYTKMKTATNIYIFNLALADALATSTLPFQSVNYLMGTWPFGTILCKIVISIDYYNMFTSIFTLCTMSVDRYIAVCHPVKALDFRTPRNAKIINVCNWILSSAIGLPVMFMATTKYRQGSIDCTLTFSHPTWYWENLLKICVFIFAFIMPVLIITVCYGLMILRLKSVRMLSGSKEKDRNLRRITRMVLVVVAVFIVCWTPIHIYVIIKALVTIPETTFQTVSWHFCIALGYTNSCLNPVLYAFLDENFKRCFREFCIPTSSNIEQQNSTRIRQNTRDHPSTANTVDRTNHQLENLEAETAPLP
T1 sequence (P41143 whole entry): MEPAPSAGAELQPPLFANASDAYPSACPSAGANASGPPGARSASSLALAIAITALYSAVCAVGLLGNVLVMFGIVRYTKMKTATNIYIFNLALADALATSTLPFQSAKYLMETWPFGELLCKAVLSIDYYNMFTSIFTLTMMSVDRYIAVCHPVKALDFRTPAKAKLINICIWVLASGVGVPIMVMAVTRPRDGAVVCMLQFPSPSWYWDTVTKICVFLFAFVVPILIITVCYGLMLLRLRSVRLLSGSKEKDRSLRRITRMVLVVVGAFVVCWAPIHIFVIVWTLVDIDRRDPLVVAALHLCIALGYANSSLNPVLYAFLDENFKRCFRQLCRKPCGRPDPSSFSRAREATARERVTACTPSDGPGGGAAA
T2 sequence (P41145 whole entry): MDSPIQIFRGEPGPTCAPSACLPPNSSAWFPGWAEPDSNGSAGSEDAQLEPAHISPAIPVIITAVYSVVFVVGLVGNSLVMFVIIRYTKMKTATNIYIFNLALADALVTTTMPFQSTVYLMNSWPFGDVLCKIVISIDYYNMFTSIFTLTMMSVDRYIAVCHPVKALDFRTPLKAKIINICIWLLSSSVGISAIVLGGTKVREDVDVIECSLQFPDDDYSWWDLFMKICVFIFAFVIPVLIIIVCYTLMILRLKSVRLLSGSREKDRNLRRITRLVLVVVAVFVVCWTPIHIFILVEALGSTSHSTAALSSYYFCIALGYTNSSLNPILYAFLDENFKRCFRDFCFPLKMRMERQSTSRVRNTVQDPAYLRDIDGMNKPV
Sequence of rat kidney TSPO (P16257 whole entry): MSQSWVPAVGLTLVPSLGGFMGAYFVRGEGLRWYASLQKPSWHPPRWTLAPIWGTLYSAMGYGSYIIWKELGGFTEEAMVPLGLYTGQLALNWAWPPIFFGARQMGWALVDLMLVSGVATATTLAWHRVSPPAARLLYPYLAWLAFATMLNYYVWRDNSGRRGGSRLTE
T7 sequence (P23975 whole entry): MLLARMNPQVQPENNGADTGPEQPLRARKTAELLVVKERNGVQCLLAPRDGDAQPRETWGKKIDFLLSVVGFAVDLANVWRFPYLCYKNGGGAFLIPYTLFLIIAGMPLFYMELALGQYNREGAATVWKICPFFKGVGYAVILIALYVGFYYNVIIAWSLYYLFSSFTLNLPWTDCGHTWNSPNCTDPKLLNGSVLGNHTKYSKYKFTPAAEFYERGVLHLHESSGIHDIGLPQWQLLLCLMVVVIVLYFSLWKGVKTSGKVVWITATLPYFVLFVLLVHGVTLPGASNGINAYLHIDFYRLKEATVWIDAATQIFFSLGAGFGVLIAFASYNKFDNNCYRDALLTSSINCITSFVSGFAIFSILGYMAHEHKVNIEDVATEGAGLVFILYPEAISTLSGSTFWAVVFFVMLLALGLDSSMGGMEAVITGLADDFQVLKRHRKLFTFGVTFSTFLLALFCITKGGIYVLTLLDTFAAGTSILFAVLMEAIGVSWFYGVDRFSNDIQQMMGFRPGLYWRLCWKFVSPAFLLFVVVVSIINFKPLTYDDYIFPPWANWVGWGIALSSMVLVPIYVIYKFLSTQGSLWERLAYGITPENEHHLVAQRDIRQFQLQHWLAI
Sequence of mA2AAR (Q60613 whole entry): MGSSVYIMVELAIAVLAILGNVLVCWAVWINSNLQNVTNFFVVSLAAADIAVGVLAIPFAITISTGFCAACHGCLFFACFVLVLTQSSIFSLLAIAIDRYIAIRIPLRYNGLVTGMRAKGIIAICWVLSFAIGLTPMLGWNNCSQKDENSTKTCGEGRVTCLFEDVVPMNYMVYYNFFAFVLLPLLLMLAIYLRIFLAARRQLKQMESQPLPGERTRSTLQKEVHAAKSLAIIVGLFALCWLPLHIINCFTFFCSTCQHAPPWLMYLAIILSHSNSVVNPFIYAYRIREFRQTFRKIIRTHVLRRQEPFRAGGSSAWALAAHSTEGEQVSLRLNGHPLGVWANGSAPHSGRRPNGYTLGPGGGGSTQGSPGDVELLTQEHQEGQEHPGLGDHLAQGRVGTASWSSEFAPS
Sequence of β3 adrenergic receptor (P13945 whole entry): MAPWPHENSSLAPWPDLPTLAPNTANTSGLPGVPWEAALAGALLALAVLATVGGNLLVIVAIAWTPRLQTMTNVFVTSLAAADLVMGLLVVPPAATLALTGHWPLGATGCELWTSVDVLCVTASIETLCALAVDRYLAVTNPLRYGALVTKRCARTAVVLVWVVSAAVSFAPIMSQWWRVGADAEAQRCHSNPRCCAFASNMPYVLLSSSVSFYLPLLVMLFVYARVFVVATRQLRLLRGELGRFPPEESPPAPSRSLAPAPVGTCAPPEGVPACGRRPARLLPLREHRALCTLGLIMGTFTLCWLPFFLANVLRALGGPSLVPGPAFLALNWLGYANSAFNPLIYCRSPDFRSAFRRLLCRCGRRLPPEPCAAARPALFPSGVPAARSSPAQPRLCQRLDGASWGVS
Sequence of human 5HT1A serotonin receptor (P08908 whole entry): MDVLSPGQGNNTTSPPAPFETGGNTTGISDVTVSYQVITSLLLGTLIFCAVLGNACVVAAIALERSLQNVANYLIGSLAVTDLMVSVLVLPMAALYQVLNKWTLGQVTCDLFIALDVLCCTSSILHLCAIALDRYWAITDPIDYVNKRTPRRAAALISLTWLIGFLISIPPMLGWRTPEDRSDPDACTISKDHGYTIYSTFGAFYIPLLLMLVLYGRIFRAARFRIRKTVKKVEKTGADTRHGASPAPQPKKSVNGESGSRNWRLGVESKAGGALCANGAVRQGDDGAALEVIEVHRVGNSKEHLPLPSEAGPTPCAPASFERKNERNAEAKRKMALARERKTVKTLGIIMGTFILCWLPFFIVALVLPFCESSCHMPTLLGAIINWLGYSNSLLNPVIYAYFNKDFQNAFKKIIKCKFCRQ
Sequence of hSERT (P31645 whole entry): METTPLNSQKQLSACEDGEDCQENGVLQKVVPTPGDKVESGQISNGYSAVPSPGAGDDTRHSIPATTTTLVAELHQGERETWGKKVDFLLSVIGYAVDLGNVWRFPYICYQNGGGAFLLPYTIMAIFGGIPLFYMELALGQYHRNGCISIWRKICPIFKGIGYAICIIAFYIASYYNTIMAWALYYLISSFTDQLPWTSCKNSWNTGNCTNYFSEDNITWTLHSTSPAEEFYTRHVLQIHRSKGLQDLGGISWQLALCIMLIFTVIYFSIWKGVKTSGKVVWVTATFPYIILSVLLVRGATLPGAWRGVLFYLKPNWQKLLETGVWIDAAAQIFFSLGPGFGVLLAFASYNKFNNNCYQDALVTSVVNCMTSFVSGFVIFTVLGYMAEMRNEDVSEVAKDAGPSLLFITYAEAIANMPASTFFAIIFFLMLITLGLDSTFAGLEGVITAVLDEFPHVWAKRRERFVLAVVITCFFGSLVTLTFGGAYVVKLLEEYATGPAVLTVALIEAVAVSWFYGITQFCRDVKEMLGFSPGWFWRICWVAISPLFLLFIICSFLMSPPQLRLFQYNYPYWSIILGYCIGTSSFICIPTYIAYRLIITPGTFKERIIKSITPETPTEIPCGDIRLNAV
Sequence of CYP2C19 (P33261 whole entry): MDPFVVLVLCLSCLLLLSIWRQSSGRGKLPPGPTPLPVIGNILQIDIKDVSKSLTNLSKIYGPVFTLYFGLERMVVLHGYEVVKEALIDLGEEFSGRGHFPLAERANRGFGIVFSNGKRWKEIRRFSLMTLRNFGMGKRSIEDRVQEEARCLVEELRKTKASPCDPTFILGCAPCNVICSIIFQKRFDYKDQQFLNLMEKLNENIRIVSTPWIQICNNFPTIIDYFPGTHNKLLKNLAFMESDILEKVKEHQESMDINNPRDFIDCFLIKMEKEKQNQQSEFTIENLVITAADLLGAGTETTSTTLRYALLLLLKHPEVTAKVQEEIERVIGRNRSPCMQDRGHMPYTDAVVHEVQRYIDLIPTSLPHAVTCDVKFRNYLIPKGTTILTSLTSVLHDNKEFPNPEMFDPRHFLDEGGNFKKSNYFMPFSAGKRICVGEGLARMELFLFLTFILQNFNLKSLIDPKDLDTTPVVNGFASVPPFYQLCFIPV

CCOC(=O)[C@@]12C[C@@H]1[C@@H](n1ccc3c(NC)nc(C#Cc4ccc(Cl)s4)nc31)[C@H](O)[C@@H]2O [compound 28, Ethyl(1S,2R,3S,4R,5S)-4-(2-((5-chlorothiophen-2-yl)ethynyl)-4-(methylamino)-7H-pyrrolo[2,3-d]pyrimidin-7-yl)-2,3-dihydroxybicyclo[3.1.0]hexane-1-carboxylate]
Ki (DOR [1]): 0.786 ± 0.21 µM | ligand efficiency (KOR [2]; KOR binding): 0.25 | Ki (KOR [2]; KOR, Ki, [3H]U69593, mean ± SEM, N = 2–4): 0.042 ± 0.001 µM | preference for KOR in comparison to DOR (KOR [2]; ratio of Ki): 19 fold | preference for KOR in comparison to MOR (KOR [2]; ratio of Ki): 15 fold | preference for KOR in comparison to TSPO (KOR [2]; ratio of Ki): ~20 fold | Ki (MOR [3]): 0.637 ± 0.367 µM | Ki (hNOP): 3.71 ± 0.78 µM | Ki (rat kidney TSPO; TSPO, Ki, rat TSPO, [3H]PK11195): 0.869 ± 0.16 µM | EC50 (hDAT [4]): > 1 µM | DAT, inhibition, % of control at 10 μM (hDAT [4]): –172 ± 57 (3) % | Ki (hA3AR [5]): 0.448 ± 0.013 µM | reduction of hA3AR binding affinity by 7-deaza modification (hA3AR [5]; 28 vs 24, 54 vs 49, 55 vs 51): 31 fold | inhibition at 10 µM (mA1AR): 32% | inhibition at 10 µM (mA2AAR): 10% | DOR Antag (%) (DOR [6]; vs naloxone 121 = 100% inhibition): 85.4% | DOR Ag (%) (DOR [6]; vs standard agonist = 100%): –0.6% | KOR Antag (%) (KOR [7]): 99.6% | MOR Antag (%) (MOR [8]; vs naloxone 121 = 100% inhibition, agonist 99 (300 nM)): 96.4% | MOR Ag (%) (MOR [8]; vs standard agonist = 100%): 0.4% | βarrestin2 recruitment, Imax (% 120) (KOR [9]): 92 ± 1 % 120 | Emax at 10 µM (hA3AR [10]): 0.59 ± 6.62% | EC50 (hDAT [11]): 2.16 ± 0.55 µM | hDAT [3H]119 binding, % control binding (maximal) (hDAT [11]): 267 ± 17% | IC50 (hDAT [12]): > 9.8 µM | EC50 (hNET [13]): > 10 µM | hSERT binding enhancement / serotonin uptake inhibition potency (hSERT): > 10 µM | MRT [14, 18]: 2.3 to 2.8 h | half-life [14, 18]: 1.6 to 2.2 h | oral bioavailability F ([14]; p.o. 1 mg/kg, 1 mg/kg): 58% | oral bioavailability F ([14]; p.o. 10 mg/kg, 10 mg/kg): 60% | IC50 (hERG): > 30 µM | IC50 (CYP1A2): ≥ 10 µM | IC50 (CYP2C9): ≥ 10 µM | IC50 (CYP2C19): ≥ 10 µM | IC50 (CYP2D6): ≥ 10 µM | IC50 (CYP3A4): ≥ 10 µM | stability in human plasma, remaining (Human plasma stability): 98% | Papp A→B at 120 min, 10 µM (CACO-2 cell permeability): 1.42 ×10⁻⁶ cm/s | Efflux Ratio (CACO-2 cells): 15.6

CCNc1nc(C#Cc2ccccc2)nc2c1ncn2[C@H]1[C@H](O)[C@H](O)[C@@H]2C[C@@H]21 [compound 50]
DOR, inhibition of radioligand binding at 10 μM (class) (DOR [1]; Table 4): ^g (<30% inhibition of radioligand binding at 10 μM) | TSPO, inhibition of radioligand binding at 10 μM (class) (rat kidney TSPO; Table 4): ^f (30–50% inhibition of radioligand binding at 10 μM) | DAT, inhibition, % of control at 10 μM (hDAT [4]): –154% | Ki (hNET [15]): 8.66 µM

CNC(=O)[C@@]12C[C@@H]1[C@@H](n1cnc3c(NC4CC4c4ccccc4)nc(C#Cc4ccccc4)nc31)[C@H](O)[C@@H]2O (mixture of isomers) [compound 10]
DOR, inhibition of radioligand binding at 10 μM (class) (DOR [1]; Table 1): ^e (30–50% inhibition of radioligand binding at 10 μM) | TSPO, inhibition of radioligand binding at 10 μM (class) (rat kidney TSPO; Table 1): ^f (<30% inhibition of radioligand binding at 10 μM) | Ki (β3 adrenergic receptor): 2.5 µM | Ki [16]: 6.3 µM | Ki (rat σ2 receptor): 2.51 µM | Ki (hDAT [17]): 2.31 µM
